Measurements: ChEMBL document CHEMBL2177053, “Current landscape of phosphodiesterase 10A (PDE10A) inhibition” (J Med Chem, 2012)

Experiments:
[1] = Inhibition of mouse PDE10A7 using fluorescein labeled cAMP and cGMP as substrate after 60 mins by IMAP TR-FRET assay
[2] = biological target: T1, cAMP and cAMP-inhibited cGMP 3',5'-cyclic phosphodiesterase 10A (Homo sapiens, UniProt Q9Y233); experiment: Inhibition of PDE10A
[3] = Selectivity ratio of IC50 for PDE4 to IC50 for PDE10A
Mus musculus [4] = experiment: Antipsychotic activity in NMRI mouse assessed as inhibition of phencyclidine-induced hyperlocomotion at 5 mg/kg, sc administered 60 mins prior to phencyclidine challenge measured up to 60 mins relative to vehicle-treated control; format: functional; conditions: route subcutaneous
Rattus norvegicus [5] = experiment: Antipsychotic activity in sc dosed rat prepulse inhibition model; format: functional
Rattus norvegicus [6] = experiment: Antipsychotic activity in sc dosed rat assessed as decrease in phencyclidine-induced locomotor activity; format: functional
Rattus norvegicus [7] = experiment: Antipsychotic activity in sc dosed rat by conditioned avoidance response test; format: functional
Rattus norvegicus [8] = experiment: Antipsychotic activity in sc dosed rat assessed as decrease in spontaneous locomotor activity; format: functional
Rattus norvegicus [9] = experiment: Antipsychotic activity in sc dosed rat assessed as decrease in amphetamine-induced spontaneous locomotor activity; format: functional
[10] = biological target: T1, cAMP and cAMP-inhibited cGMP 3',5'-cyclic phosphodiesterase 10A; experiment: Inhibition of human PDE10A1 using [3H]cAMP as substrate after 20 mins by TopCount scintillation counting
[11] = Inhibition of bovine PDE10A using [3H]cAMP as substrate after 90 mins by scintillation counting; set-up: species or system Bos taurus
[12] = biological target: T1, cAMP and cAMP-inhibited cGMP 3',5'-cyclic phosphodiesterase 10A; experiment: Inhibition of PDE10A using [3H]cAMP and [3H]cGMP as substrate after 30 mins by scintillation counting
Mus musculus [13] = experiment: Antipsychotic activity in iv dosed NMRI mouse assessed as inhibition of SCH-23390-induced hypolocomotion administered 30 mins prior to SCH-23390 challenge measured up to 30 mins; format: functional
Rattus norvegicus [14] = experiment: Antipsychotic activity in iv dosed rat assessed as inhibition of apomorphine-induced Stereotypy administered 1 hr prior to apomorphine challenge; format: functional
Rattus norvegicus [15] = experiment: Antipsychotic activity in sc dosed Wistar Wiga rat assessed as latency to avoid an electric shock measured up to 120 mins by conditioned avoidance responce test; format: functional; conditions: 2 h
Rattus norvegicus [16] = experiment: Antipsychotic activity in sc dosed Wiga rat assessed as inhibition of phencyclidine-induced hyperlocomotion administered 60 mins prior to phencyclidine challenge measured up to 30 mins; format: functional
[17] = biological target: T1, cAMP and cAMP-inhibited cGMP 3',5'-cyclic phosphodiesterase 10A; experiment: Inhibition of human full length PDE10A expressed in SF21 cells using [3H]cGMP as substrate after 60 mins by scintillation proximity assay
[18] = biological target: T1, cAMP and cAMP-inhibited cGMP 3',5'-cyclic phosphodiesterase 10A; experiment: Inhibition of human full length PDE10A using [3H]cGMP as substrate after 20 mins by scintillation proximity assay
[19] = Selectivity ratio of IC50 for PDE1B1 to IC50 for rat recombinant PDE10A2
[20] = biological target: T1, cAMP and cAMP-inhibited cGMP 3',5'-cyclic phosphodiesterase 10A; experiment: Inhibition of PDE10A by fluorescence polarization assay
[21] = biological target: T1, cAMP and cAMP-inhibited cGMP 3',5'-cyclic phosphodiesterase 10A; experiment: Inhibition of PDE10A at 1 uM
[22] = biological target: T1, cAMP and cAMP-inhibited cGMP 3',5'-cyclic phosphodiesterase 10A; experiment: Inhibition of PDE10A at 0.1 uM relative to control

T1 sequence (Q9Y233 whole entry): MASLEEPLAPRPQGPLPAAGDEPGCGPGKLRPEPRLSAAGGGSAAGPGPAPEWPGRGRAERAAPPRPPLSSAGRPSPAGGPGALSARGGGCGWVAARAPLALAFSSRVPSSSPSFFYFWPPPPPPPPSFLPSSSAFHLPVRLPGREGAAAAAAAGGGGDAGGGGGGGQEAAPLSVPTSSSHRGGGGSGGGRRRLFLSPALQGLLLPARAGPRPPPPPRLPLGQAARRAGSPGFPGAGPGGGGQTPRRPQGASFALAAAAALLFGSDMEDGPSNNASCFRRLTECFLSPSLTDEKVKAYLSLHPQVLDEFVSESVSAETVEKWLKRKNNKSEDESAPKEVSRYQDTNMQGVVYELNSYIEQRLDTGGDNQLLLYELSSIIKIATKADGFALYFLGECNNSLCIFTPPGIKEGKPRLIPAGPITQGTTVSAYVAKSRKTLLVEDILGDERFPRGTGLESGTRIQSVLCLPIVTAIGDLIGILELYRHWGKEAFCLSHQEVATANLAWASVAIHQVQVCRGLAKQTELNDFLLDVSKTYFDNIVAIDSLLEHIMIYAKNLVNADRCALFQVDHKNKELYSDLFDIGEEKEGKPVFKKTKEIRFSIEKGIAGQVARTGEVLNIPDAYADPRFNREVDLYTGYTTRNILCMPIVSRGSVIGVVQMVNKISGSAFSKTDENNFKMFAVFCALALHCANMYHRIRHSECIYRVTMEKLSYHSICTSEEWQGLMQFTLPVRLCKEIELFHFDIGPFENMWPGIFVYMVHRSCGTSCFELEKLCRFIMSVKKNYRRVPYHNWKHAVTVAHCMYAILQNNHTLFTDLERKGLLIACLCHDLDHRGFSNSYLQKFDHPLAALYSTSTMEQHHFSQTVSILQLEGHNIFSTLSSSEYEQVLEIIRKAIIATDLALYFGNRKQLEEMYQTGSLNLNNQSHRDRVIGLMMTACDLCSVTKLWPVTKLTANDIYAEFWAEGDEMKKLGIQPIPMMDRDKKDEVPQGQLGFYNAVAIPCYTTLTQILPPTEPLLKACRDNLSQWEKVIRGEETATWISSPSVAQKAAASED

## Clc1cccnc1N1CC(c2nc3ccccc3[nH]2)C1
[1]
  IC50: 7.8 nM

## COc1ccc(C2CC(=O)N(Cc3ccc(-c4cccnc4)cc3F)C2)c2c1oc1ccccc12 (single isomer, unassigned; (+))
[2]
  IC50: 15 nM
[3]
  Ratio IC50: > 670

## Cc1cnc(C)n2nc(CCc3nc(-c4ccccc4)cn3C)nc12
Mus musculus [4]
  inhibition in vivo at 5 mg/kg: 96%

## CN1CCN(C2=Nc3cc(Cl)ccc3Nc3ccccc32)CC1 [CLOZAPINE]
Rattus norvegicus [5]
  ED50: 0.56 mg/kg
Rattus norvegicus [6]
  ED50: 1.8 mg/kg
Rattus norvegicus [7]
  ED50: 5 mg/kg
Rattus norvegicus [8]
  ED50: 1.63 mg/kg
Rattus norvegicus [9]
  ED50: 0.87 mg/kg

## O=C(CCCN1CCC(O)(c2ccc(Cl)cc2)CC1)c1ccc(F)cc1 [HALOPERIDOL]
Rattus norvegicus [5]
  ED50: 0.32 mg/kg
Rattus norvegicus [6]
  ED50: 0.13 mg/kg
Rattus norvegicus [7]
  ED50: 0.04 mg/kg
Rattus norvegicus [8]
  ED50: 0.07 mg/kg
Rattus norvegicus [9]
  ED50: 0.02 mg/kg

## OCC1CCN(c2nccnc2OC2CN(c3ccc4ccccc4n3)C2)CC1
[1]
  IC50: 2.3 nM

## CN1CC(c2cccnc2Oc2ccc(C(=O)c3nc4ccccc4[nH]3)cc2)CC1=O (stereo not given)
[2]
  IC50: 0.21 nM

## O=C(N/N=C/c1cccc2cnccc12)C1CC1c1ccc(-c2ccccc2)cc1 (stereo not given)
[10]
  IC50: < 50 nM

## Cc1nc2c(nc1-c1cc3nc(N4CCCC4)cc(N[C@H]4CC[C@](C)(O)CC4)n3n1)CCCO2
[11]
  IC50: 0.27 nM

## CCCC(=O)N(Cc1cccnc1)c1ccc(OCc2ccc3ccccc3n2)cc1
[12]
  IC50: < 100 nM

## COCCc1ccc(-c2c(C)nc3c(N4CCOCC4)ccnn23)cn1 [JNJ-42396302]
Mus musculus [13]
  ED50: 7.1 mg/kg
Rattus norvegicus [14]
  ED50: 1.3 mg/kg
Rattus norvegicus [15]
  ED50: 4.7 mg/kg
Rattus norvegicus [16]
  ED50: 2 mg/kg

## COc1cn(-c2ccc(-n3cccn3)cc2F)nc(-c2ccnn2-c2cccc(Cl)c2)c1=O
[17]
  IC50: < 10 nM

## COCCn1nc(-c2ccccn2)cc1NC(=O)c1nc(C2CC2)ccc1Nc1cncnc1
[18]
  IC50: < 1 nM

## CC1(C)OC(=O)C(c2ccc(OCc3ccc4ccccc4n3)cc2)=C1c1ccncc1
[10]
  IC50: < 50 nM

## COCCOc1ccc(-c2c(C)nc3c(-c4ccncc4)ccnn23)cn1
Mus musculus [13]
  ED50: 5 mg/kg
Rattus norvegicus [14]
  ED50: 1.5 mg/kg
[19]
  Ratio IC50: 200
Rattus norvegicus [15]
  ED50: 5.4 mg/kg
Rattus norvegicus [16]
  ED50: 6.1 mg/kg

## Cc1ccc(Nc2ccc(Oc3nccnc3C3CCN(C(=O)N(C)C)CC3)cc2)nc1
[1]
  IC50: 0.045 nM

## O=C(Nc1ccn2cc(-c3ccccc3)nc2n1)c1nc(C2CC2)ccc1Nc1cncnc1
[18]
  IC50: 6 nM

## CC(C)(C)c1nnc2c(C(=O)NCCc3nc4ccccc4s3)cc(Br)cn12
[12]
  IC50: < 10 nM

## O=C(Cc1c(F)cccc1F)N(Cc1cccnc1)c1ccc(OCc2ccc3ccccc3n2)cc1
[12]
  IC50: < 100 nM

## Cc1nc2ccccc2nc1/C=C/c1nc(OC2CCOCC2)cc(N2CCCC2)n1
[2]
  IC50: 0.89 nM

## c1cc(-c2nc(OCc3ccncc3)c3ccncc3n2)cc(-c2ncco2)c1
[20]
  Ki: < 1000 nM

## COc1cc2c(cc1OC)-c1c(-c3cncc(-n4ccc5ccccc54)c3)nc(C)n1CC2
[12]
  IC50: < 10 nM

## Cc1ccc2c(=O)n(-c3ccc(O[11CH3])cc3)c(CCN3C(=O)c4cccc(OC(C)C)c4C3=O)nc2n1
[20]
  Ki: 0.1 nM

## Cc1nc2ccccc2nc1OCc1nc(OC2CCOCC2)cc(N2CCCC2)n1
[2]
  IC50: 0.61 nM

## O=C(NCCc1nc2ccccc2[nH]1)c1cc(Br)cn2nc(C3CC3)nc12
[12]
  IC50: < 10 nM

## Clc1ccc(/C=C(/Cn2ncnn2)c2ccc(OCc3ccc4ccccc4n3)cc2)cc1
[2]
  IC50: < 100 nM
[21]
  inhibition: 98%

## Cc1ccc2nc(C)c(-c3cc4nc(N5CCC[C@H]5CO)cc(N(C5CCOCC5)C5CC5)n4n3)nc2c1
[11]
  IC50: 0.0068 nM

## O=C(Nc1ccccc1)N1CCc2nc(-c3cccnc3)nc(NCC3C=NC(c4ccccc4)=N3)c2C1 (stereo not given)
[20]
  Ki: 2.19 nM

## Cc1ncccc1-c1cccc(-c2nc(NCc3ccncc3)c3ccncc3n2)c1
[20]
  Ki: < 1000 nM

## COc1cc(-c2csc(C(=O)C(OC)c3ccc(N4CCOCC4)cc3)n2)cc(OC)c1Br (stereo not given)
[12]
  IC50: < 1000 nM

## OCC1CCN(c2cncc(OC3CN(c4ccc5ccccc5n4)C3)n2)CC1
[1]
  IC50: 0.6 nM

## CCn1c(=O)n(-c2ccc(Nc3nc4ccc(F)cc4s3)cc2)c2ncccc21
[22]
  inhibition: 102%

## COc1ccc(-c2cc(N3CCn4ccnc4C3)nc(/C=C/c3nc(N(C)C)c4ccccc4n3)n2)cc1OC
[2]
  IC50: 0.44 nM

## Cc1nc2ccccc2nc1-c1cc2nc(N3CCCC3)cc(NC3CCOCC3)n2n1
[11]
  IC50: 0.11 nM

## Cn1nc(-c2ccc3ccccc3n2)cc1NC(=O)c1nc(C2CC2)ccc1Nc1cncnc1
[18]
  IC50: < 1 nM

## COc1ccc(-n2c(CCN3C(=O)c4cccc(OC(C)C)c4C3=O)nc3nc(C)ccc3c2=O)cc1
[20]
  Ki: 0.1 nM

## COc1cc(-c2ccc(C(=O)C(OC)c3ccc(-c4nnc(C)o4)cc3)o2)cc(OC)c1OC (stereo not given)
[12]
  IC50: < 1000 nM

## COc1cc(-c2ccc(C(=O)C(OC)c3ccc(-c4nnc(C)s4)cc3)o2)cc(OC)c1Br (stereo not given)
[12]
  IC50: < 1000 nM
